# Test results published in patent publication EP0637237B1, “CALCIUM RECEPTOR-ACTIVE MOLECULES” (BRIGHAM AND WOMEN'S HOSPITAL, INC., priority 1993, dated 1994).
# Legend:
# [1] = test system: osteoclast Ca^2+ receptor; test: [Ca2+]i (indo-1) in single rat osteoclasts; assay type: cell-based
# human parathyroid cells = test: PTH secretion from human parathyroid cells; assay type: cell-based; settings: at concentrations that caused mobilization of intracellular Ca2+, Fig. 13
# Ca^2+ receptor = biological target: T1, Ca^2+ receptor (Homo sapiens, UniProt P41180); test: Cl- current in Xenopus oocytes injected with human parathyroid poly(A)+ mRNA; assay type: cell-based
# T1 construct: Oocytes were injected with poly(A)^+-enriched mRNA from human parathyroid tissue (hyperplastic glands from a case of secondary HPT); expressed in transfected cells; host or cells: Xenopus laevis oocytes injected with poly(A)+ mRNA from hyperplastic human parathyroid glands
# T1 sequence (P41180 20-1078): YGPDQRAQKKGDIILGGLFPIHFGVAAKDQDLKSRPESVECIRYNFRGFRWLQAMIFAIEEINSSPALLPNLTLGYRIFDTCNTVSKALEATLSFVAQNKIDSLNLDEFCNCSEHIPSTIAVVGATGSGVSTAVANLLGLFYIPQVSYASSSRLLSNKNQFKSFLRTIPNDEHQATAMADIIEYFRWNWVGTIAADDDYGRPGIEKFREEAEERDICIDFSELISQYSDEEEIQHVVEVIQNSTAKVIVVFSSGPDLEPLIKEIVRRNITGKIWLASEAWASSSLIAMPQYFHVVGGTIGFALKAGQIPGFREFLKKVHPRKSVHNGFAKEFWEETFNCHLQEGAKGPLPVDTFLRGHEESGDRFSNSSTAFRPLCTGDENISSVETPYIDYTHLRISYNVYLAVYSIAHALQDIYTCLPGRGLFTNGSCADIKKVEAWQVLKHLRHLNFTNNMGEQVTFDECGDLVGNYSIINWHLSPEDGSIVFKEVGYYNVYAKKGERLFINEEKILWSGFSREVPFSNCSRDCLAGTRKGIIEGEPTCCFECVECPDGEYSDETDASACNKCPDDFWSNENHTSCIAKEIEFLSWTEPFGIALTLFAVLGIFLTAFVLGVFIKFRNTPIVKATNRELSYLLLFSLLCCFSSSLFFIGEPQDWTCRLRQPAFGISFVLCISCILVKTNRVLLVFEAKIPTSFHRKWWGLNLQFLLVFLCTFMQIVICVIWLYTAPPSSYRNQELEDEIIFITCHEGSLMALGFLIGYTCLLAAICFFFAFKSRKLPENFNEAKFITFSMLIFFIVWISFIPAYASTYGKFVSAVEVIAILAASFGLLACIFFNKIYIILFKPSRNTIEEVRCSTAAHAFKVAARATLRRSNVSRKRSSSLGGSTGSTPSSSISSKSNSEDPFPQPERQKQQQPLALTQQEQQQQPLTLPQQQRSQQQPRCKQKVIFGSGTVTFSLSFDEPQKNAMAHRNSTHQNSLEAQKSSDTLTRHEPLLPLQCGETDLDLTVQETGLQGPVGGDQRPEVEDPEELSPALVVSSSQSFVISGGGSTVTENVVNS
# [2] = Net positive charge of the molecule; assay type: physicochemical; settings: Table 1; effective charge at physiological pH
compound,measurement,setting,value
NC[C@@H]1O[C@H](O[C@H]2[C@@H](O)[C@H](O[C@@H]3[C@@H](O)[C@H](N)C[C@H](N)[C@H]3O[C@H]3O[C@H](CN)[C@@H](O)[C@H](O)[C@H]3N)O[C@@H]2CO)[C@H](N)[C@@H](O)[C@@H]1O [neomycin B],effect on basal [Ca2+]i,[1]; 5 mM,without effect on basal [Ca^2+]i
same,effect on the response to subsequent extracellular Ca2+ (25 mM),"[1]; neomycin 10 mM, spermine 20 mM, verapamil 100 µM",did not block
same,increase in [Ca2+]i in rat osteoclasts,"[1]; neomycin 10 mM, spermine 10 or 20 mM",Neither neomycin (10 mM) nor spermine (10 or 20 mM) caused increases in [Ca^2+]i
same,increase in [Ca2+]i in osteoclasts,"[1]; neomycin B 1 mM, spermine 1 or 5 mM, Fig. 23",failed to evoke any increase in [Ca^2+]i
same,increase in [Ca2+]i in osteoclasts,"[1]; screening, small responses were detected",none of these caused any large increase in [Ca^2+]i
same,inhibition of PTH secretion,human parathyroid cells,inhibited PTH secretion from human parathyroid cells
same,mobilization of intracellular Ca2+ in oocytes expressing the Ca2+ receptor,"Ca^2+ receptor; hexacyclen 135 µM, neomycin 100 µM, NPS 382 5 mM",effective
same,change in current in water-injected oocytes,"Ca^2+ receptor; neomycin B 10 mM, five water-injected oocytes",failed to cause any change in the current
same,Net (+) Charge,[2],+6
